Results as given in publication PMC1940322, “The Effect of PPARα, PPARδ, PPARγ, and PPARpan Agonists on Body Weight, Body Mass, and Serum Lipid Profiles in Diet-Induced Obese AKR/J Mice” (PPAR Research, 2007).

Molecular target: T1, murine PPARδ (Mus musculus, UniProt P35396)
T1 construct: expressed in transfected cells; host or cells: CV-1 cells
T1 sequence (P35396 210-438 limits assumed): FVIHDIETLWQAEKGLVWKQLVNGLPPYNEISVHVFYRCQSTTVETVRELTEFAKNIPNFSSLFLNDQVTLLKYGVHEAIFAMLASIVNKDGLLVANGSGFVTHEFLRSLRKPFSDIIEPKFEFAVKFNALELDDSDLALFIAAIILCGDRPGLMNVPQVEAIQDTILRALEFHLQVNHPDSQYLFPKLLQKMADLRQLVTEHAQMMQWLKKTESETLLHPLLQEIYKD
Experiment: PPAR-GAL4 transient transfection transactivation assay (SPAP reporter) in CV-1 cells, PPARδ
Type: cell-based
Procedure: The functional potency of selected ligands was evaluated using a transient transfection assay in CV-1 cells. The ligand binding domains for murine PPARα, PPARδ, and PPARγ were fused to the yeast transcription factor GAL4 DNA binding domain as a chimera. CV-1 cells were propagated and transiently transfected with expression vectors for the respective PPAR chimera as previously described.

- EC50 (CV-1 cells, GAL4 chimera, read-out: mPPARδ, murine receptor activation EC50): 10 µM
- mPPARδ %Max (maximal activation vs reference comparator): 12%
Compound: COC(=O)c1ccccc1N[C@@H](Cc1ccc(OCCc2nc(-c3ccccc3)oc2C)cc1)C(=O)O [GW7845]
